Laboratory results as given in publication PMC3272584 (Bioorganic & medicinal chemistry, 2011).

Tested on: rat neonatal microglia
Assay: Short-term microglia cell viability: LDH release
Settings: short-term cell viability (90 min)

| SMILES | LDH50 (concentration that caused 50% release of the total LDH content of microglia cells) |
| --- | --- |
| [C-]#[N+][C@@]1(C)CC[C@H]2[C@H]3[C@@H](C(=C)CC[C@H]31)[C@H](CC(=C)C)C[C@@H]2C [Compound 1, 7-isocyano-11(20)-15(16)-amphilectadiene] | >10 µM |
| [C-]#[N+]C(C)(C)C[C@@H]1C[C@H](C)[C@H]2CC[C@H](C)[C@@]3([N+]#[C-])CCC(=C)[C@@H]1[C@H]23 [Compound 2, (–)-8,15-diisocyano-11(20)-amphilectene] | >10 µM |
| [C-]#[N+][C@@]12CCC(=C)[C@H]3[C@H](CC(C)(C)NC=O)C[C@H](C)[C@@H](CC[C@@H]1C)[C@@H]32 [Compound 4, 8-isocyano-11(20)-ene-15-amphilectaformamide] | >10 µM |
| [C-]#[N+][C@@]12CCC(=C)[C@H]3[C@H](CC(C)(C)NC(=O)CN4CCC4=O)C[C@H](C)[C@@H](CC[C@@H]1C)[C@@H]32 [Compound 5, monamphilectine A] | >10 µM |
| [C-]#[N+]C(C)(C)C[C@@H]1C[C@H](C)[C@H]2CC[C@H](C)[C@@]3([N+]#[C-])CCC(=O)[C@@H]1[C@H]23 [Compound 6, 8,15-diisocyano-11-amphilectone] | >10 µM |
